Data: the supplement of paper PMC11451515

Assays:
Conditions in all cases: 48 h
SEM cells [1] = assay: AUC of viability dose-response curve (% viability x log10 dose units); higher = less sensitive
Summary of the method: (§1)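 Leukemia cells adapted to each medium were seeded in 1536-well plates (500 or 1000 cells/well) and given library compounds in DMSO for 48 h at 37°C. The 11 threefold doses spanned 47 μM to 0.79 nM, and CellTiter-Glo One luminescence was normalised per plate to DMSO and cell-free wells before four-parameter log-logistic fitting on log10 dose. Area under the curve was integrated with the trapezoidal rule, scaling curves above full viability and removing curves that failed quality control.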

P12-Ichikawa [2] = assay: as above
Summary of the method: as §1

NOMO1 [3] = assay: as above
Summary of the method: as §1

SEM cells [4] = assay: cell viability relative to DMSO control; higher = less cytotoxic
Summary of the method: (§2)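 Viability was expressed as a per-plate percentage of DMSO wells, with cell-free wells as background. Leukemia cells (NOMO1 or SEM at 500 cells/well, P12-Ichikawa at 1000 cells/well) were adapted for at least four passages in each medium and seeded in 1536-well plates (5 μl). Library compounds in DMSO were pin-dosed over an 11-point threefold series from 47 μM to 0.79 nM, and CellTiter-Glo One luminescence was read after 48 h at 37°C.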

P12-Ichikawa [5] = assay: as above
Summary of the method: as §2

NOMO1 [6] = assay: as above
Summary of the method: as §2

ClC1=CC\2=C(OC3=C(C=CC=C3)\N=C2N4CCNCC4)C=C1
AUC of viability dose-response curve
Conditions | NOMO1 [3] | P12-Ichikawa [2] | SEM cells [1]
HPLM + 10% dialyzed FBS | 450 | 468 | 466
RPMI 5 mM glucose + 10% FBS | 434 | 438 | 437
RPMI 5 mM glucose + 10% dialyzed FBS | 437 | 462 | 467

cell viability [%]
Conditions | NOMO1 [6] | P12-Ichikawa [5] | SEM cells [4]
HPLM + 10% dialyzed FBS, 0.000781 µM | 106 | 100 | 110
HPLM + 10% dialyzed FBS, 0.00234 µM | 111 | 104 | 90.9
HPLM + 10% dialyzed FBS, 0.00702 µM | 106 | 113 | 114
HPLM + 10% dialyzed FBS, 0.0211 µM | 94.5 | 103 | 108
HPLM + 10% dialyzed FBS, 0.0632 µM | 105 | 109 | 117
HPLM + 10% dialyzed FBS, 0.19 µM | 103 | 101 | 116
HPLM + 10% dialyzed FBS, 0.569 µM | 118 | 107 | 112
HPLM + 10% dialyzed FBS, 1.71 µM | 91.1 | 109 | 105
HPLM + 10% dialyzed FBS, 5.12 µM | 91.7 | 99.7 | 119
HPLM + 10% dialyzed FBS, 15.4 µM | 83.3 | 98 | 95.2
HPLM + 10% dialyzed FBS, 46.1 µM | 90.7 | 95.5 | 89
RPMI 5 mM glucose + 10% FBS, 0.000781 µM | 87 | 103 | 94.5
RPMI 5 mM glucose + 10% FBS, 0.00234 µM | 90.1 | 105 | 49.6
RPMI 5 mM glucose + 10% FBS, 0.00702 µM | 95.9 | 107 | 95
RPMI 5 mM glucose + 10% FBS, 0.0211 µM | 94.8 | 105 | 90.4
RPMI 5 mM glucose + 10% FBS, 0.0632 µM | 88.7 | 93.8 | 94.1
RPMI 5 mM glucose + 10% FBS, 0.19 µM | 101 | 90.6 | 93.3
RPMI 5 mM glucose + 10% FBS, 0.569 µM | 100 | 99.6 | 103
RPMI 5 mM glucose + 10% FBS, 1.71 µM | 87.7 | 95.2 | 99.7
RPMI 5 mM glucose + 10% FBS, 5.12 µM | 86.5 | 90.3 | 104
RPMI 5 mM glucose + 10% FBS, 15.4 µM | 83.7 | 87.7 | 89.3
RPMI 5 mM glucose + 10% FBS, 46.1 µM | 84 | 87.8 | 86.8
RPMI 5 mM glucose + 10% dialyzed FBS, 0.000781 µM | 101 | 100 | 104
RPMI 5 mM glucose + 10% dialyzed FBS, 0.00234 µM | 84 | 102 | 80.1
RPMI 5 mM glucose + 10% dialyzed FBS, 0.00702 µM | 94.3 | 100 | 113
RPMI 5 mM glucose + 10% dialyzed FBS, 0.0211 µM | 91.1 | 104 | 106
RPMI 5 mM glucose + 10% dialyzed FBS, 0.0632 µM | 92.1 | 99.3 | 117
RPMI 5 mM glucose + 10% dialyzed FBS, 0.19 µM | 90.7 | 99.7 | 105
RPMI 5 mM glucose + 10% dialyzed FBS, 0.569 µM | 93.3 | 99.1 | 111
RPMI 5 mM glucose + 10% dialyzed FBS, 1.71 µM | 90.6 | 92.5 | 107
RPMI 5 mM glucose + 10% dialyzed FBS, 5.12 µM | 90.7 | 89.3 | 119
RPMI 5 mM glucose + 10% dialyzed FBS, 15.4 µM | 88.4 | 98.3 | 103
RPMI 5 mM glucose + 10% dialyzed FBS, 46.1 µM | 91.1 | 88.6 | 91

O=C(Nc1ncc(SCCN2CCCC2)s1)[C@]1(c2ccc([S+](=O)([O-])C3CC3)cc2)C[C@H]1C1CCCCC1
AUC of viability dose-response curve
Conditions | NOMO1 [3] | P12-Ichikawa [2] | SEM cells [1]
HPLM + 10% dialyzed FBS | 428 | 455 | 390
RPMI 5 mM glucose + 10% FBS | 451 | 459 | 461
RPMI 5 mM glucose + 10% dialyzed FBS | 446 | 445 | 420

cell viability [%]
Conditions | NOMO1 [6] | P12-Ichikawa [5] | SEM cells [4]
HPLM + 10% dialyzed FBS, 0.000781 µM | 111 | 117 | 131
HPLM + 10% dialyzed FBS, 0.00234 µM | 136 | 115 | 111
HPLM + 10% dialyzed FBS, 0.00702 µM | 110 | 121 | 120
HPLM + 10% dialyzed FBS, 0.0211 µM | 123 | 121 | 124
HPLM + 10% dialyzed FBS, 0.0632 µM | 120 | 116 | 111
HPLM + 10% dialyzed FBS, 0.19 µM | 106 | 113 | 108
HPLM + 10% dialyzed FBS, 0.569 µM | 105 | 116 | 109
HPLM + 10% dialyzed FBS, 1.71 µM | 102 | 108 | 63.2
HPLM + 10% dialyzed FBS, 5.12 µM | 103 | 111 | 98.9
HPLM + 10% dialyzed FBS, 15.4 µM | 70.2 | 96.5 | 73.9
HPLM + 10% dialyzed FBS, 46.1 µM | 5.84 | 68.8 | 27.5
RPMI 5 mM glucose + 10% FBS, 0.000781 µM | 125 | 120 | 113
RPMI 5 mM glucose + 10% FBS, 0.00234 µM | 127 | 120 | 117
RPMI 5 mM glucose + 10% FBS, 0.00702 µM | 123 | 111 | 126
RPMI 5 mM glucose + 10% FBS, 0.0211 µM | 111 | 123 | 123
RPMI 5 mM glucose + 10% FBS, 0.0632 µM | 123 | 108 | 120
RPMI 5 mM glucose + 10% FBS, 0.19 µM | 113 | 123 | 126
RPMI 5 mM glucose + 10% FBS, 0.569 µM | 107 | 105 | 115
RPMI 5 mM glucose + 10% FBS, 1.71 µM | 128 | 112 | 71.2
RPMI 5 mM glucose + 10% FBS, 5.12 µM | 108 | 105 | 123
RPMI 5 mM glucose + 10% FBS, 15.4 µM | 104 | 108 | 114
RPMI 5 mM glucose + 10% FBS, 46.1 µM | 25.1 | 43.6 | 41.8
RPMI 5 mM glucose + 10% dialyzed FBS, 0.000781 µM | 118 | 111 | 129
RPMI 5 mM glucose + 10% dialyzed FBS, 0.00234 µM | 117 | 122 | 106
RPMI 5 mM glucose + 10% dialyzed FBS, 0.00702 µM | 118 | 114 | 120
RPMI 5 mM glucose + 10% dialyzed FBS, 0.0211 µM | 126 | 121 | 118
RPMI 5 mM glucose + 10% dialyzed FBS, 0.0632 µM | 124 | 109 | 117
RPMI 5 mM glucose + 10% dialyzed FBS, 0.19 µM | 111 | 118 | 117
RPMI 5 mM glucose + 10% dialyzed FBS, 0.569 µM | 114 | 120 | 138
RPMI 5 mM glucose + 10% dialyzed FBS, 1.71 µM | 117 | 109 | 51.5
RPMI 5 mM glucose + 10% dialyzed FBS, 5.12 µM | 110 | 108 | 110
RPMI 5 mM glucose + 10% dialyzed FBS, 15.4 µM | 94.2 | 88.3 | 105
RPMI 5 mM glucose + 10% dialyzed FBS, 46.1 µM | 17.4 | 35.9 | 52.5

CC[C@]12\C=C/CN3CC[C@]4([C@@H](N(C)C5=CC(=C(C=C45)[C@]6(C[C@H]7C[C@H](CN(C7)CC8=C6[NH]C9=C8C=CC=C9)C(C)(F)F)C(=O)OC)OC)[C@](O)([C@@H]1OC(C)=O)C(=O)OC)[C@H]23
AUC of viability dose-response curve
Conditions | NOMO1 [3] | P12-Ichikawa [2] | SEM cells [1]
HPLM + 10% dialyzed FBS | 256 | 189 | 215
RPMI 5 mM glucose + 10% FBS | 221 | 176 | 179
RPMI 5 mM glucose + 10% dialyzed FBS | 250 | 212 | 196

cell viability [%]
Conditions | NOMO1 [6] | P12-Ichikawa [5] | SEM cells [4]
HPLM + 10% dialyzed FBS, 0.000781 µM | 102 | 91.9 | 107
HPLM + 10% dialyzed FBS, 0.00234 µM | 102 | 93.3 | 97.9
HPLM + 10% dialyzed FBS, 0.00702 µM | 97.5 | 92 | 94.9
HPLM + 10% dialyzed FBS, 0.0211 µM | 72.8 | 69.4 | 74.6
HPLM + 10% dialyzed FBS, 0.0632 µM | 28.2 | 37 | 29.3
HPLM + 10% dialyzed FBS, 0.19 µM | 28.1 | 12 | 21.1
HPLM + 10% dialyzed FBS, 0.569 µM | 36 | 15.3 | 22
HPLM + 10% dialyzed FBS, 1.71 µM | 38.6 | 13.2 | 22
HPLM + 10% dialyzed FBS, 5.12 µM | 36.8 | 8.31 | 25
HPLM + 10% dialyzed FBS, 15.4 µM | 36.1 | 8.59 | 17.8
HPLM + 10% dialyzed FBS, 46.1 µM | 28.7 | 6.21 | 6.8
RPMI 5 mM glucose + 10% FBS, 0.000781 µM | 95 | 93.7 | 120
RPMI 5 mM glucose + 10% FBS, 0.00234 µM | 96.9 | 88.8 | 120
RPMI 5 mM glucose + 10% FBS, 0.00702 µM | 91.9 | 85.9 | 87.4
RPMI 5 mM glucose + 10% FBS, 0.0211 µM | 85.2 | 63.7 | 76.9
RPMI 5 mM glucose + 10% FBS, 0.0632 µM | 24.5 | 18.6 | 18.7
RPMI 5 mM glucose + 10% FBS, 0.19 µM | 18.5 | 13.9 | 18.8
RPMI 5 mM glucose + 10% FBS, 0.569 µM | 21.6 | 20.9 | 17.3
RPMI 5 mM glucose + 10% FBS, 1.71 µM | 22.3 | 11.4 | 20.2
RPMI 5 mM glucose + 10% FBS, 5.12 µM | 22.3 | 8.45 | 15.6
RPMI 5 mM glucose + 10% FBS, 15.4 µM | 23.7 | 7.91 | 11.3
RPMI 5 mM glucose + 10% FBS, 46.1 µM | 20.1 | 5.99 | 6.89
RPMI 5 mM glucose + 10% dialyzed FBS, 0.000781 µM | 91.5 | 87.4 | 95.3
RPMI 5 mM glucose + 10% dialyzed FBS, 0.00234 µM | 92.4 | 83 | 83
RPMI 5 mM glucose + 10% dialyzed FBS, 0.00702 µM | 91.6 | 83.5 | 74.5
RPMI 5 mM glucose + 10% dialyzed FBS, 0.0211 µM | 93.7 | 79.3 | 68.9
RPMI 5 mM glucose + 10% dialyzed FBS, 0.0632 µM | 57.5 | 51.6 | 43.2
RPMI 5 mM glucose + 10% dialyzed FBS, 0.19 µM | 30.6 | 27.1 | 21.2
RPMI 5 mM glucose + 10% dialyzed FBS, 0.569 µM | 24.2 | 26.5 | 16.9
RPMI 5 mM glucose + 10% dialyzed FBS, 1.71 µM | 26.3 | 21.5 | 18.9
RPMI 5 mM glucose + 10% dialyzed FBS, 5.12 µM | 27.5 | 16.1 | 21
RPMI 5 mM glucose + 10% dialyzed FBS, 15.4 µM | 26.8 | 13 | 15.3
RPMI 5 mM glucose + 10% dialyzed FBS, 46.1 µM | 20.8 | 5.7 | 5.17
